In patent US20100197688A1, “EPHA4 RTK INHIBITORS FOR TREATMENT OF NEUROLOGICAL AND NEURODEGENERATIVE DISORDERS AND CANCER” (priority 2008, published 2010):

Key:
EphA4 kinase = target: T1, EphA4 kinase (Homo sapiens, UniProt P54764); test: EphA4 kinase enzymatic assay (TR-FRET); format: biochemical; settings: for IC50: 25 μM ATP, recombinant His6-TEV-EphA4 (aa. 615-911); for EphA4 Kinase max inhibition in %: maximum percent inhibition (value in parentheses)
T1 construct: His6-TEV-EphA4 (36 KD) (aa. 615-911); His6 (N); TEV cleavage site (N); made in house; host or cells: Sf9 (baculovirus)
T1 sequence (P54764 615-911): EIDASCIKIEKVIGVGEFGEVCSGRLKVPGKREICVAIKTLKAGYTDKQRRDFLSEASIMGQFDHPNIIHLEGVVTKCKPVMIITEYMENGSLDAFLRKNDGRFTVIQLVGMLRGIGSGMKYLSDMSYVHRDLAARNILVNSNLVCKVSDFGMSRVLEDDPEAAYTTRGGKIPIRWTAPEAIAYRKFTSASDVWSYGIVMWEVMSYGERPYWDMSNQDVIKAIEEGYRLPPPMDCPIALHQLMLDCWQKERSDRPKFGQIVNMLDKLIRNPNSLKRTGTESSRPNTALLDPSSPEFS
Method: Recombinant EphA4 kinase His6-TEV-EphA4 (36 KD) (aa. 615-911) was expressed in Sf9 using baculovirus expression system. Hi-tagged protein was purified by high performance liquid chromatography in two step, using a His Trap HP column and a heparin column. The potency of compounds to inhibit EphA4 kinase phosphorylation was measured by an enzymatic assay based on time resolved fluorescence energy transfer assay format (TR-FRET), using Eu-W1024 anti-pTyr antibody (Perkin Elmer, USA) as a donor and SureLight APC (Perkin Elmer, USA) as an acceptor.
Biotinylated Poly(Glu Tyr) peptide (50 nM) was incubated in 384-well with 25 μM ATP (Sigma) and 10 ng EphA4 kinase in NEBuffer (New England Biolabs) for 60 minutes at rt. The reaction was stopped by 15 mM of EDTA solution for 10 minutes at rt. The detection mixture containing 0.5 nM Eu-W1024 anti-pTyr antibody (Perkin Elmer, USA) and 50 nM SureLight APC (Perkin Elmer, USA) was added to the wells and the plate was incubated for 30 min at rt, while protected from light. Energy transfer signal was measured using a Victor 2V (excitation filter 340, emission filter 615 and 665, delay time 50 μs). Results were expressed as ratios of the absorbencies 665/615.
Compounds were titrated in duplicate at 11 points concentration starting at 100 μM with a 3 fold increment. Compounds were diluted in DMSO. […] Percentage inhibition for each compound was then calculated based on the value of the 100% inhibition. Concentration-response curves were represented and the concentrations for 50% inhibition (IC50) were calculated.

[1] = target: T2, human form of EphA4 receptor (Homo sapiens, UniProt P54764); test: EphA4 cell-based assay (pGAS-luciferase in EphA4-transfected CHO-K1 cells); settings: for IC50: inflexion point, read-out: EphA4 Cell Assay IP; for EphA4 Cell Assay maximum percent inhibition: value in parentheses
T2 construct: expressed in transfected cells; host or cells: CHO-K1, transiently transfected with EphA4 in pCMV6-XL5
From the text: A cell-based assay was used to measure the potency of the compounds on the human form of EphA4 receptor over-expressed in Chinese Hamster Ovary cell line, CHO-K1 cells (Merck Collection). The cell assay was based on a novel signaling pathway of EphA4, which involves activation of the tyrosine kinase Jak2 and the transcriptional activator Stat3 (39).
Reagents: The expression constructs of EphA4 were subcloned into the expression vector pCMV6-XL5 (Origene, Md., USA) (clone from Merck Kinase Library). The luciferase construct that was linked to the Stat1-responsive enhancer (pGAS-Luc) was bought from Stratagene (USA). The renilla construct that linked to an empty vector CMV was bought from Promega (USA).
Transfection and Luciferase Assay: CHO-K1 cells were plated in T-175 cell culture bottle in DMEM medium supplemented with 10% fetal bovine serum, 1 mM sodium pyruvate, 2 mM L-glutamine and 1.5 g/L sodium bicarbonate. When cell reached 70-80% confluence, transfections were performed in T-175 culture flasks, using Lipofectamine 2000™ transfection reagent (Invitrogen) according to the manufacturer's directions. For the luciferase assay CHO-K1 cells were co-transfected the next day with […] of pGAS-Luc, 70 mg of EphA4, and 5 mg of empty vector pRL-CMV, which encoded the Renilla luciferase, and was included in the transfection mix for normalization. Six hours after transfection the cells were trypsinized and plated at 4.105 cells/ml into 96 well Black/Clear Poly-D-Lysine coated plates (Biocoat) that had been pre-spotted with compounds. Cells were lysed the next day using the Reporter Lysis Buffer (Promega), and the luciferase activity was measured using the Dual Luciferase Assay (Promega) following the manufacturer's directions. The Firefly and Renilla luminescences are read consecutively on a Top-Count (Perkin-Elmer). Results are expressed as a ratio of the two luminsescence: Firefly Luciferase/Renilla Luciferase. Cell viability was assessed on parallel plates using the Cell Glo Assay (Promega) following the manufacturer's directions. Results are expressed as percent of cell death in comparison with vehicle-treated wells.
(§1) Compounds were titrated in duplicate at 10 points concentration starting at 100 μM with a 1.5 fold increment. Concentration-response curves were represented and the concentrations at the inflexion point (IP) were calculated. The maximum effect was given by the maximum percent inhibition calculated from the results of the control wells (containing only DMSO).

[2] = test system: Jak2/Stat3 activation with Interferon Gamma in MCF-7 cells; test: Cell-based counterscreen assay (IFN-γ activated Jak2/Stat3, pGAS-luciferase); settings: for IC50: Homo sapiens, MCF7, inflexion point, read-out: Cell Counter Screen Assay IP
From the text: EphA4 cell-based assay was based on the signaling pathway of EphA4, which involves activation of the tyrosine kinase Jak2 and the transcriptional activator Stat3. However, pharmacological agents could also interfere downstream of EphA4 signaling and particularly on Jak2 activity. To counterscreen this potential effect unrelated to EphA4 activity, a new assay was designed based on direct activation of the tyrosine kinase Jak2 and the transcriptional activator Stat3 with Interferon Gamma (IFN-γ).
MCF-7 cells were maintained in MEM growth media, supplemented with 10% fetal bovine serum, 2 mM L-glutamine, 1.5 g/L sodium bicarbonate, 0.1 mM non-essential amino acids, 1 mM sodium pyruvate, and 0.01 mg/ml bovine insulin. For the luciferase assay MCF-7 cells were co-transfected the next day with […] of pGAS-Luc and […] of empty vector pRL-CMV, which encoded the Renilla luciferase, and was included in the transfection mix for normalization. Six hours after transfection the cells were trypsinized and plated at 4.105 cells/ml into 96 well Black/Clear Poly-D-Lysine coated plates (Biocoat) that had been pre-spotted with compounds. […] Cells were lysed the next day using the Reporter Lysis Buffer (Promega), and the luciferase activity was measured using the Dual Luciferase Assay (Promega) following the manufacturer's directions. The Firefly and Renilla luminescences are read consecutively on a Top-Count (Perkin-Elmer).
Results are expressed as a ratio of the two luminsescence: Firefly Luciferase/Renilla Luciferase. Cell viability was assessed on parallel plates using the Cell Glo Assay (Promega) following the manufacturer's directions. Results are expressed as percent of cell death in comparison with vehicle-treated wells.
as §1

T2 sequence (P54764 20-986): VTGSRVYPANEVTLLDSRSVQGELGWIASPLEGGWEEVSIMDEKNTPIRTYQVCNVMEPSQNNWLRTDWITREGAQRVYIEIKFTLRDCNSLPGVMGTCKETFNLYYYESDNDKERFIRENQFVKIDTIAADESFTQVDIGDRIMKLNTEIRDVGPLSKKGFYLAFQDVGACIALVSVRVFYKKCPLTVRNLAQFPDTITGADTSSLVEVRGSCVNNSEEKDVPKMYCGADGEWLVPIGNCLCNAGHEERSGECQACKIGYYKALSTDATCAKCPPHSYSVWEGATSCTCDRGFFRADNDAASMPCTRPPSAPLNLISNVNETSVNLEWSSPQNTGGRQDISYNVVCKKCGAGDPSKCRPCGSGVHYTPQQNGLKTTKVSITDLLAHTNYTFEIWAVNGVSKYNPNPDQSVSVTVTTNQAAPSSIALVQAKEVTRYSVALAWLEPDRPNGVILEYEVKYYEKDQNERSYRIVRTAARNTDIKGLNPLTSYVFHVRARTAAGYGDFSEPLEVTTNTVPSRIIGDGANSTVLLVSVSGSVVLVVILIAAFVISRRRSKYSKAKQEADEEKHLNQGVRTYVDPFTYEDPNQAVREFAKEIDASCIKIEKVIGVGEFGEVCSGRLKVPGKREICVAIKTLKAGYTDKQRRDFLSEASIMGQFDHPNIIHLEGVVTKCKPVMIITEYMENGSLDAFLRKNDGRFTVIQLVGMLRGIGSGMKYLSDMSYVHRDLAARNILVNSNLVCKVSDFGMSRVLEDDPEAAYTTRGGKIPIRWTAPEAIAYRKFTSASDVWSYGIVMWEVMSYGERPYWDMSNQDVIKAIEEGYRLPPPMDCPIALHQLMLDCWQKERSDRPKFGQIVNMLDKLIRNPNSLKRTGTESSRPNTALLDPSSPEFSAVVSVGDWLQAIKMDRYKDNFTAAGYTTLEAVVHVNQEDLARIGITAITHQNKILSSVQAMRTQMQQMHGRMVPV

Compound | IC50 (EphA4 kinase) | EphA4 Kinase max inhibition in % (EphA4 kinase) | IC50 [1] | EphA4 Cell Assay maximum percent inhibition [1] | IC50 [2] | Cell Counter Screen Assay max inhibition in % ([2]; value in parentheses)
Cc1ccc(NC(=O)c2cccc(C(F)(F)F)c2)cc1-c1ccc(-n2cccn2)cc1 [Example 120] | 1.59 µM | 70% | 5.6 µM | 50% | > 100 µM | –
Cc1ccc(NC(=O)c2cccc(C(F)(F)F)c2)cc1-c1ccc(O)c(NC=O)c1 [Example 133] | 4.8 µM | 93% | 8.3 µM | 42% | 1.7 µM | 99%
